Experiments:
CYP2C8 = target: T1, CYP2C8 (Homo sapiens, UniProt P10632); assay: Metabolic stability in recombinant human CYP2C8 metabolic enzyme; assay type: in vitro ADME; conditions: CYP subtype 2C8, test concentration 2 (M); for half-life at 2 µM: human, recombinant CYP2C8, pH 7.4, read-out: Half-life T1/2
T1 sequence (P10632 1-490): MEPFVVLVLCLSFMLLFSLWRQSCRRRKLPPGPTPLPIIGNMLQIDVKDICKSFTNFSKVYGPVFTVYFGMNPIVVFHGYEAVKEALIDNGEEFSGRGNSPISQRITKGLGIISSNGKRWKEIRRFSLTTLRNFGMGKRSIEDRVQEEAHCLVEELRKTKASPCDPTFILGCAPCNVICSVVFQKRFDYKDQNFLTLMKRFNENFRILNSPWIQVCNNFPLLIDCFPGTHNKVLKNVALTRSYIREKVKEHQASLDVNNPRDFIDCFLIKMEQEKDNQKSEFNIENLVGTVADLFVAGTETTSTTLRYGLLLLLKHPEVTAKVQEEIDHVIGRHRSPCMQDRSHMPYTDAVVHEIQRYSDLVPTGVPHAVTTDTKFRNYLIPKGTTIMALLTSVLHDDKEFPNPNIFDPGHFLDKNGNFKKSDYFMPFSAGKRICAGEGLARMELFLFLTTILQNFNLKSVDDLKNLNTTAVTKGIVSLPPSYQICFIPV
Procedure: 1) Na2HPO4, KH2PO4, and pure water were used to prepare phosphate buffer (100 mM, pH 7.4);
2) Test compound and reference compound were dissolved in acetonitrile to obtain a working solution (200 M);
3) NADPH solution (10 mM) was prepared with NADPH and phosphate buffer (100 mM, pH 7.4);
4) The stock solution of recombinant CYP2C8 enzyme was diluted to […] with phosphate buffer (100 mM, pH 7.4);
5) The working solution of test compound or reference compound Amitriptyline was added to CYP2C8 solution, and the concentration of compound was 2 M, to which was added NADPH solution (10 mM) to initiate a metabolic reaction. 30 L incubation solution of metabolic reaction was collected at 0, 5, 10, 15, 25 minutes, and transferred to a quenching plate to quench with 120 L acetonitrile (including internal standard);
6) The sample was centrifuged at 4° C. for 60 min to precipitate the protein. The supernatant was collected and transferred to a 96-well plate, then diluted one times with pure water, and subjected to LC-MS/MS analysis;
7) The data analysis and calculation were similar to experimental example 2.

[1] = Metabolic stability in mouse liver microsomes; assay type: in vitro ADME; conditions: 1 μM test drug, 0.5 mg/ml protein, 1 mM NADPH; for half-life at 1 μM: read-out: Half-life t1/2
Procedure: 1. Preparation of NADPH solution (5 mM): An appropriate amount of NADPH standard was weighed and dissolved in phosphate buffer (1×PBS), that was mixed well and placed in an ice bath for use; Preparation of test compound solution: an appropriate amount of test substances were respectively weighed, and a solution with a suitable concentration was prepared with DMSO, to obtain stock solution I; an suitable amount of stock solution I was further diluted to 5 mM with 1×PBS to obtain stock solution II, that was stored in a refrigerator at 4° C. for later use; Preparation of liver microsome solution: the original solutions of rat, mouse, and human liver microsomes were respectively diluted to 0.833 mg/ml with PBS. 2. 60 μl of liver microsome solution was transferred to a 1 ml 96-well plate, to which was added 20 μl of the test drug solution (or probe substrate testosterone solution), and then pre-incubated for 5 min in a 37° C. thermomixer. 20 μl NADPH solution was added to start the reaction, and the contents of test drug, microsomal protein and NADPH in the reaction system were 1 μM, 0.5 mg/ml and 1 mM, respectively, and the content of DMSO in the system was not higher than 0.2%. Then, at 0, 15, 30, 45, 60 min (duplicated wells for each time point), 300 μl acetonitrile was added to stop the reaction (including the internal standard compound suitably selected).
3. 20 μl NADPH was replaced with an equal volume of 1×PBS in the control group, and the contents of test drug and microsomal protein in the reaction system were 1 μM and 0.5 mg/ml, respectively, while the content of DMSO in the system was not higher than 0.2%. Respectively at 0 min and 60 min (duplicated wells at each time point), 300 μl acetonitrile was added to stop the reaction (including the internal standard compound suitably selected).
4. After finishing the incubation time, the samples obtained by terminating the reaction were mixed, and centrifuged at 3200 rpm for 10 min, then the supernatant was collected for LC/MS/MS analysis.
5. Data analysis: The peak area was determined from the extracted ion chromatogram. The slope value k was determined by linear regression of the natural logarithm obtained from the curve that was resulted from the remaining percentage of the parent drug vs the incubation time.
In vitro half-life (in vitro t1/2) was determined by the slope value: in vitro t1/2=−(0.693/k) In vitro CLint (in the unit of L/min/mg) was converted from the in vitro half-life t1/2 (minutes) using the following equation (the average of repeated determinations): […]
Scale up CLint (in the unit of mL/min/kg) was converted from in vitro t1/2 (minutes) by using the following formula (the average of repeated determinations): […]

SMILES | Clearance rate CLint (CYP2C8) | Percentage of residual substances after 25 minutes (CYP2C8) | half-life at 2 µM (CYP2C8) | Half-life t1/2 [1] | half-life at 1 μM [1]
[2H]C([2H])([2H])C([2H])(c1cc(Oc2c(Cl)cc(-n3nc(C#N)c(=O)[nH]c3=O)cc2Cl)n[nH]c1=O)C([2H])([2H])[2H] [Compound 2] | 0.08 μL/min/pmol CYP450 | 80.87% | 1.51 h | ∞ | 
[2H]c1c(Oc2c(Cl)cc(-n3nc(C#N)c(=O)[nH]c3=O)cc2Cl)n[nH]c(=O)c1C([2H])(C([2H])([2H])[2H])C([2H])([2H])[2H] [Compound 10, 2-(3,5-dichloro-4-((4-deuterio-5-(heptadeuteroisopropyl)-6-oxo-1,6-dihydro-pyridazin3-yl)oxy)phenyl)-3,5-dioxo-2,3,4,5-tetrahydro-1,2,4-triazine-6-carbonitrile] | 0.07 μL/min/pmol CYP450 | 81.60% | 1.6 h |  | 14.7 h
[2H]c1c(Oc2c(Cl)cc(-n3nc(C#N)c(=O)[nH]c3=O)cc2Cl)n[nH]c(=O)c1C(C([2H])([2H])[2H])C([2H])([2H])[2H] [Compound 11, 2-(3,5-dichloro-4-((4-deuterio-5-(1,1,1,3,3,3-hexadeuteropropan-2-yl)-6-oxo-1,6-dihydro-pyridazin-3-yl)oxy)phenyl)-3,5-dioxo-2,3,4,5-tetrahydro-1,2,4-triazine-6-carbonitrile] | 0.06 μL/min/pmol CYP450 | 85.57% | 1.83 h |  | 7.63 h

From patent publication US20210292304A1 (HINOVA PHARMACEUTICALS INC., priority 2018, published 2021)
